Some test systems named below: SK-MEL-5; RPMI-8226; UACC-62; BT-549; HOP-92; PC-3; ACHN; HOP-62; OVCAR-3; T47D; RXF 393; UO-31; IGROV-1; SW-620; K562; OVCAR-5; EKVX; HT-29; A498.
Common to all, as to experiment: NCI-60 cell line screen, 48 h

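Five concentrations, 48 hours, 96-well plates. GI50 marks 50% less growth.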 Active and inactive are the calls of the source. Rule as the data show it: active = GI50 up to about 1.1 µM and inactive = higher. Where only a bound is given, the exact number is not on record here.

Take `O=C(OCc1ccccc1)N(CCCCN(CCCNCc1ccccc1)C(=O)OCc1ccccc1)CCCNCc1ccccc1`: the GI50 in the experiment with SK-MEL-5 was 0.697 µM (active); in the experiment on RPMI-8226 it was 0.24 µM (active); in the experiment with UACC-62, 0.881 µM (active); in the experiment with BT-549, 1.62 µM (inactive); with HOP-92 it was 0.12 µM (active); in the experiment with PC-3, 1.11 µM (active). In addition, the GI50 with ACHN was 1.51 µM (inactive); with HOP-62, 1.6 µM (inactive); in the experiment with OVCAR-3, 1.39 µM (inactive); in the experiment on T47D it was 1.98 µM (inactive); in the experiment with RXF 393, 1.63 µM (inactive); in the experiment on UO-31 it was 1.38 µM (inactive). Also, the GI50 in the experiment on IGROV-1 was 0.883 µM (active); in the experiment on SW-620 it was 0.221 µM (active); in the experiment with K562, 0.208 µM (active); with OVCAR-5, 1.63 µM (inactive); in the experiment on EKVX, 1.49 µM (inactive); with HT-29, 0.24 µM (active). The GI50 with A498 is 0.889 µM (active).
`COc1cc(/C=C2\N=C(c3ccccc3)N(c3nc4c(OC)ccc(OC)c4s3)C2=O)cc(OC)c1OC`: the GI50 in the experiment with SK-MEL-5 was 34.8 µM (inactive); with RPMI-8226 it was 43 µM (inactive); in the experiment on UACC-62, 66.1 µM (inactive); with BT-549 it was > 100 µM (inactive); in the experiment with HOP-92, > 100 µM (inactive); with PC-3 it was 59.7 µM (inactive). Moreover, the GI50 with ACHN is > 100 µM (inactive); with HOP-62 it was > 100 µM (inactive); in the experiment on OVCAR-3 it was > 100 µM (inactive); in the experiment on T47D, 32.4 µM (inactive); with RXF 393 it was 85.1 µM (inactive); with UO-31, > 100 µM (inactive). The GI50 is > 100 µM (inactive) with IGROV-1; 49.7 µM (inactive) in the experiment on SW-620; 34.8 µM (inactive) in the experiment with K562; > 100 µM (inactive) with OVCAR-5; > 100 µM (inactive) in the experiment with EKVX; > 100 µM (inactive) in the experiment on HT-29. Further, the GI50 in the experiment with A498 was > 100 µM (inactive).
Take `CCOC(=O)/C(=C\Nc1c(C)n(C)n(-c2ccccc2)c1=O)C(=O)c1ccccc1`: the GI50 in the experiment with SK-MEL-5, in the experiment on RPMI-8226, with UACC-62, in the experiment with BT-549, in the experiment with HOP-92 and in the experiment on PC-3 was > 100 µM (inactive) in each case. For the same compound, the GI50 with ACHN, in the experiment on HOP-62, in the experiment with OVCAR-3, with T47D, in the experiment on RXF 393 and in the experiment with UO-31 was > 100 µM (inactive) in each case. Further, the GI50 in the experiment on IGROV-1, in the experiment on SW-620, with K562, in the experiment on OVCAR-5, with EKVX and in the experiment with HT-29 was > 100 µM (inactive) each time. Moreover, the GI50 in the experiment with A498 was > 100 µM (inactive).
In the case of `COc1ccc2c(c1)c1nn(CCN3CCCCC3)c3ccc4c(=O)n(CCN(C)C)c(=O)n2c4c13`, the GI50 was 0.0406 µM (active) in the experiment with SK-MEL-5; < 0.01 µM (active) with RPMI-8226; 0.0304 µM (active) in the experiment on UACC-62; 0.245 µM (active) in the experiment with BT-549; 0.152 µM (active) in the experiment with HOP-92; 0.019 µM (active) with PC-3. Also, the GI50 in the experiment with ACHN was < 0.01 µM (active); in the experiment with HOP-62 it was < 0.01 µM (active); in the experiment on OVCAR-3, 0.0151 µM (active); in the experiment with T47D, < 0.0175 µM (active); in the experiment with RXF 393 it was < 0.0164 µM (active); in the experiment with UO-31 it was < 0.0116 µM (active). Also, the GI50 with IGROV-1 is < 0.01 µM (active); with SW-620, < 0.01 µM (active); in the experiment on K562 it was < 0.01 µM (active); with OVCAR-5, < 0.0105 µM (active); in the experiment with EKVX it was < 0.0142 µM (active); with HT-29, < 0.01 µM (active). The GI50 with A498 was < 0.022 µM (active).
As for `CN(CCCNC(=O)c1cc(-c2ccccc2)nc2ccccc12)CCCNC(=O)c1cc(-c2ccccc2)nc2ccccc12`, the GI50 is 1.66 µM (inactive) with SK-MEL-5; 2.8 µM (inactive) with RPMI-8226; 2.07 µM (inactive) in the experiment with UACC-62; 12.9 µM (inactive) with BT-549; 2.64 µM (inactive) with HOP-92; 3.56 µM (inactive) in the experiment on PC-3. Also, the GI50 was 2.81 µM (inactive) with ACHN; 1.82 µM (inactive) in the experiment on HOP-62; 3.27 µM (inactive) with OVCAR-3; 2.95 µM (inactive) with T47D; 4.62 µM (inactive) in the experiment on RXF 393; 2.31 µM (inactive) in the experiment with UO-31. The GI50 with IGROV-1 is 4.41 µM (inactive); with SW-620 it was 1.85 µM (inactive); with K562 it was 1.99 µM (inactive); in the experiment on OVCAR-5, 2.28 µM (inactive); in the experiment with EKVX, 6.1 µM (inactive); in the experiment with HT-29, 2 µM (inactive). For the same compound, the GI50 in the experiment on A498 was 4.41 µM (inactive).
For `O=C1c2ccccc2C(C2c3ccccc3C(=O)c3cc(Br)ccc32)c2ccc(Br)cc21` (stereo not drawn), the GI50 in the experiment on SK-MEL-5, in the experiment with RPMI-8226, in the experiment on UACC-62, with BT-549, in the experiment with HOP-92 and with PC-3 was > 100 µM (inactive) in each case. Also, the GI50 in the experiment with ACHN, in the experiment on HOP-62, in the experiment on OVCAR-3, in the experiment on T47D, in the experiment with RXF 393 and with UO-31 was > 100 µM (inactive) in each case. The GI50 with IGROV-1 is > 100 µM (inactive); in the experiment on SW-620 it was > 100 µM (inactive); in the experiment with K562 it was 31.8 µM (inactive); with OVCAR-5, > 100 µM (inactive); in the experiment with EKVX, > 100 µM (inactive); with HT-29 it was > 100 µM (inactive). Also, the GI50 in the experiment with A498 is > 100 µM (inactive).
Consider `CC1(c2ccc(Cl)cc2)CC(c2ccc(Cl)cc2)=C(C#N)C(=C(C#N)C#N)N1` (stereo not drawn), for which the GI50 with SK-MEL-5 is 13.9 µM (inactive); in the experiment with RPMI-8226, 8.77 µM (inactive); in the experiment with UACC-62 it was 15.3 µM (inactive); with BT-549 it was 19.4 µM (inactive); in the experiment on HOP-92, 3.25 µM (inactive); in the experiment on PC-3 it was 16.4 µM (inactive). The GI50 in the experiment with ACHN is 14.5 µM (inactive); in the experiment with HOP-62 it was 7.36 µM (inactive); in the experiment on OVCAR-3 it was 11.3 µM (inactive); with T47D it was 12.6 µM (inactive); in the experiment with RXF 393 it was 13.1 µM (inactive); in the experiment on UO-31 it was 16.3 µM (inactive). Further, the GI50 with IGROV-1 is 14.7 µM (inactive); with SW-620 it was 12 µM (inactive); in the experiment with K562, 13.8 µM (inactive); in the experiment with OVCAR-5, 25.8 µM (inactive); in the experiment with EKVX, 17.9 µM (inactive); in the experiment with HT-29, 12.8 µM (inactive). Moreover, the GI50 with A498 is 18.5 µM (inactive).

Source of the values: ChEMBL document CHEMBL1201862, “PubChem BioAssay data set” (2004).
